Measurements published in patent US20190274290A1, “GENETICALLY MODIFIED MOUSE MODEL FOR HUMAN HEPATOCYTE XENOTRANSPLANTATION” (The Jackson Laboratory, priority 2016, published 2019).

Assays:
NSG-PiZ mice [1] = experiment: Human hepatocyte engraftment in NSG-PiZ mice, serum human albumin ELISA; format: in vivo, mouse; details: for human hepatocyte engraftment (serum human albumin), comparison of groups: two doses of 50 mg/kg intraperitoneal MCT 14 and 7 days before engraftment, 50 mg/kg
Protocol: Human albumin levels were evaluated post-engraftment by using the human Albumin ELISA quantitation set (Bethyl Labs) as described by the manufacturer. For all assays, after incubation with the HRP-conjugated antibody, 3,3′,5,5′-tetramethylbenzidine (TMB) peroxidase substrate (KPL) was applied, and the reactions were stopped by adding 2 […] (Fisher Scientific) after 15-30 min. Plates were read at […] on a VersaMax microplate reader (Molecular Devices).
Animals were pre-treated with 50 mg/kg MCT (Oakwood Chemical) intraperitoneally 7 days or 14 and 7 days prior to engraftment or treated at the time of engraftment with 1 μg purified NA/LE hamster anti-mouse CD95 antibody (first apoptosis signal [FAS], BD PharMingen) intravenously.
To investigate additional methods for increased human hepatocyte engraftment, two approaches used in the liver xenograft field were tested: monocrotaline (MCT) and a mouse-specific anti-Fas antigen (CD95) antibody. MCT is a pyrrolizidine plant alkaloid with known endothelial toxicity in the lung, liver, and kidney. […] The anti-CD95 antibody recognizes mouse Fas and leads to cytolytic activity of cells expressing mouse Fas by inducing apoptosis of mouse hepatocytes and other cells.
(§1) All recipient mice were males, age 6-10 weeks, and they were anesthetized by isoflurane inhalation in a closed ventilation chamber. For intrasplenic injection, an incision was made on mouse left paralumbar fossa in order to expose the spleen. […] The exposed spleen was returned to the abdominal cavity and the incision was closed with an absorbable suture (4-0 Vicryl). Vet Bond was applied topically to seal the skin incision. For partial hepatectomy, median-line incision was made to expose the liver. The median lobe of the liver and the left lateral lobe were seemly tied off with 4-0 silk Blake braided suture and excised. Two-thirds of the total liver was removed by partial hepatectomy. The remaining liver was gently returned to the abdominal cavity. […]

NSG-PiZ mice [2] = experiment: Percentage of human hepatocytes in engrafted mouse liver (flow cytometry, anti-HLA-ABC / CD324); format: in vivo; details: MCT-treated NSG-PiZ mice; flow cytometry with anti-HLA antibody
Protocol: After dissociation, cells were stained on ice for 30 minutes with anti-mouse/human CD324 (Biolegend) and anti-HLA-ABC (BD Biosciences) antibodies to determine human hepatocyte percentage. Cells were then washed twice with 1×PBS and resuspended in 1×PBS supplemented with 0.5% FHS and 2 mM EDTA. Cells were acquired using FACS-LSRII flow cytometer (BD Biosciences) and analyzed with FlowJo software (version 10.1; Tree Star Inc.).
as §1, with “cavity. Finally, the opposing sections of the abdominal wall were aligned at the ventral midline, and an absorbable suture (4-0 Vicryl) was applied to close the incision.” for “cavity.”

`C[C@H]1C(=O)O[C@@H]2CCN3CC=C(COC(=O)[C@](C)(O)[C@]1(C)O)[C@H]23` [MCT, monocrotaline] was tested, and the “human hepatocyte engraftment (serum human albumin)” value (NSG-PiZ mice [1]; MCT 50 mg/kg before engraftment or 1 μg anti-mouse CD95 antibody at engraftment, versus intrasplenic engraftment alone) was “significantly increased”, the “human hepatocyte engraftment (serum human albumin), comparison of groups” value (NSG-PiZ mice [1]) was “greatest engraftment” and the “human hepatocyte engraftment (serum human albumin), comparison of groups” value (NSG-PiZ mice [1]; listed as monocrotaline) was “greatest serum human albumin concentrations”. The “hepatocytes of human origin” value (NSG-PiZ mice [2]) was “at least 25%”.
